Measurements reported in patent US20140357512A1, “HISTONE DEACETYLASE (HDAC) BIOMARKERS IN MULTIPLE MYELOMA” (priority 2013, published 2014).

Test system: human myeloma cell line MM.1S
Experiment: SILAC acetylated-lysine peptide profiling, HDAC inhibitor vs DMSO (light/heavy ratio)
Format: cell-based
Text: An embodiment of the invention comprises utilizing the SILAC method in order to quantitate changes in protein expression between two or more populations of cells. The SILAC method is a technique based on mass spectrometry that detects differences in protein abundance among samples using non-radioactive isotopic labeling. The SILAC method is known in the art, and described in detail in Ong et al., “Stable Isotope Labeling by Amino Acids in Cell Culture, SILAC, as a Simple and Accurate Approach to Expression Proteomics”, Molecular & Cellular Proteomics, vol. 1, pp. 376-386 (2002), which is incorporated herein by reference in its entirety.
Briefly, the SILAC method involves growing two populations of cells in cell culture. The first population of cells is grown in growth media containing normal amino acids (“normal media”). The second population of cells is grown in media lacking a standard essential amino acid (such as lysine), but is then supplemented with a non-radioactive, isotopically labeled form of that essential amino acid (such as lysine labeled with ^13C atoms, rather than normal ^12C atoms), which is called “heavy media”. When the two populations of cells are each growing in the medium, they incorporate the amino acids into all of their proteins. The growth of cells maintained in the heavy media is no different from that in normal media. All peptides containing the heavy amino acids are heavier than their normal counterparts. The cells from each of the two populations of cells are lysed. The lysates from each of the two cell populations are then combined. The combined cell lysates are then analyzed by mass spectrometry. Pairs of chemically identical peptides of different stable isotope composition can be differentiated in a mass spectrometer due to their difference in mass. The ratio of peak intensities in the mass spectrum for such peptide pairs reflects the abundance ratio for the two proteins.
This example describes SILAC studies that were performed to compare the effects of three different HDAC inhibitors (Compound A, Compound B, and tubastatin A) to a control on a human multiple myeloma cell line. The HDAC inhibitors were also compared amongst themselves to determine differences in their effects.
A human myeloma cell line MM.1S was grown using either ^12C (light) or ^13C (heavy) lysine containing culture medium. The “heavy” cells were treated with DMSO as the control, and the “light” cells were treated with a single HDAC inhibitor at 37° C. for 6 hours. The heavy and light cells were lysed, and the lysates were mixed in 1:1 ratio and digested with the protease trypsin. The acetylated lysine containing peptides (due to the action of the HDAC inhibitor) in the digested peptide pool were captured by a non-specific anti-acetylated lysine antibody cocktail (the antibodies identify both light and heavy acetylated peptides), and subjected to mass spectrometry analysis in order to identify thousands of individual peptides.
Thousands of peptides were identified in pairs (^12C and ^13C) due to their known mass differences. The amino acid sequence and quantitative ratio (Light/Heavy) of a given peptide in two differentially treated cell lysates were then determined and annotated with their possible protein (gene) sources.
As stated above, three HDAC inhibitors (Compound A, Compound B, and Tubastatin A) were used. Thus, the SILAC method was performed three times, with a different HDAC inhibitor compared to a control each time. Accordingly, there are three pairs of quantitative data in the table below, i.e., Compound A:DMSO, Compound B:DMSO, and Tubastatin A:DMSO. A cut-off of 1.30 fold of change (increase or decrease) was then used to determine “changed” or “+” in the table, and any peptides with a fold of change less than 1.3 fold were determined to be “unchanged” or “0” in the table. Those peptides that were not identified were marked as “NA” in the table. […]

CN1CCc2c(c3ccccc3n2Cc2ccc(C(=O)NO)cc2)C1 [Tub A]
light to heavy ratio (L/H ratio) of acetylated peptide AVDCLLDSK(ac)WAK (SEQ ID NO: 518) (Translocation protein SEC62 [60], gene SEC62, inhibitor:DMSO): 0.00 log 2
light to heavy ratio (L/H ratio) of acetylated peptide VK(ac)FIHDQTSPNPK (SEQ ID NO: 562) (Tricarboxylate transport protein mitochondrial [149], gene SLC25A1, inhibitor:DMSO): 0.00 log 2
light to heavy ratio (L/H ratio), log 2 scale, acetylated peptide FGAPQK(ac)DVK (SEQ ID NO: 788) (Trifunctional enzyme subunit alpha mitochondrial [359], gene HADHA, drug:DMSO): 0.00
light to heavy ratio (L/H ratio), log 2 scale, acetylated peptide ILQEGVDPK(ac)K (SEQ ID NO: 789) (Trifunctional enzyme subunit alpha mitochondrial [569], gene HADHA, drug:DMSO): 0.00
light to heavy ratio (L/H ratio) of acetylated peptide VPGK(ac)DTVTK (SEQ ID NO: 308) (Trifunctional enzyme subunit beta mitochondrial [272], HADHB, drug:DMSO): 0.40 log 2
L/H ratio of acetylated peptide VVVTK(ac)YCDPDSYHR (SEQ ID NO: 114) (U2AF2 [462], log 2 scale, drug vs DMSO): −0.43
L/H ratio of acetylated peptide (VAILK(ac)ANLR (SEQ ID NO: 488), Transitional endoplasmic reticulum ATPase [658], VCP): 0.00 log 2
light to heavy ratio (L/H ratio) of acetylated peptide, log 2 scale (VALEIFQHSK(ac)YK (SEQ ID NO: 183), Isoform 2 of 39S ribosomal protein L39 mitochondrial [234], MRPL39): 0.64
L/H ratio of acetylated peptide FGIAAK(ac)YQIDPDACFSAK (SEQ ID NO: 115) (VDAC1 [224], log 2 scale, drug vs DMSO): 0.47
L/H ratio of acetylated peptide YK(ac)WCEYGLTFTEK (SEQ ID NO: 116) (VDAC2 [63], log 2 scale, drug vs DMSO): 0.59
L/H ratio of acetylated peptide (ac)CNTPTYCDLGK(ac)AAK (SEQ ID NO: 6) (VDAC3 [12], log 2 scale, drug vs DMSO): 0.52
L/H ratio of acetylated peptide YK(ac)VCNYGLTFTQK (SEQ ID NO: 117) (VDAC3 [63], log 2 scale, drug vs DMSO): 0.40
L/H ratio of acetylated peptide (VIIVVK(ac)DGPGFYTTR (SEQ ID NO: 401), Trifunctional enzyme subunit alpha mitochondrial [540], HADHA): 0.00 log 2
L/H ratio of acetylated peptide TNEK(ac)VELQELNDR (SEQ ID NO: 122) (VIM [104], log 2 scale, drug vs DMSO): −0.59
L/H ratio of acetylated peptide FANYIDK(ac)VR (SEQ ID NO: 118) (VIM [120], log 2 scale, drug vs DMSO): −0.65
L/H ratio of acetylated peptide ILLAELEQLK(ac)GQGK (SEQ ID NO: 119) (VIM [139], log 2 scale, drug vs DMSO): −0.82
L/H ratio of acetylated peptide SK(ac)FADLSEAANR (SEQ ID NO: 121) (VIM [294], log 2 scale, drug vs DMSO): −0.60
L/H ratio of acetylated peptide LQDEIQNMK(ac)EEMAR (SEQ ID NO: 120) (VIM [373], log 2 scale, drug vs DMSO): −0.72
light to heavy ratio (L/H ratio) of acetylated peptide, log 2 scale (VLK(ac)GNTAEGCVHETQEK (SEQ ID NO: 186), Isoform 1 of Myb-binding protein 1A [935], MYBBP1A): −0.43
light to heavy ratio (L/H ratio) of acetylated peptide, log 2 scale (VLPSIVNEVLK(ac)SVVAK (SEQ ID NO: 195), Prohibitin-2 [142], PHB2): 1.00
light to heavy ratio (L/H ratio) of acetylated peptide, log 2 scale (VNLQNNPGAMEHFHMK(ac)LFR (SEQ ID NO: 136), B-cell receptor-associated protein 31 [95], BCAP31): 0.52
light to heavy ratio (L/H ratio) of acetylated peptide, log 2 scale (VTEK(ac)IPVR (SEQ ID NO: 168), Isoform Short of Heterogeneous nuclear ribonucleoprotein U [324], HNRNPU): −0.76
light to heavy ratio (L/H ratio) of acetylated peptide, log 2 scale (VVVGK(ac)TFDSIVMDPK (SEQ ID NO: 193), Protein disulfide-isomerase A4 [533], PDIA4): −0.80
light to heavy ratio (L/H ratio) of acetylated peptide DLQQYQSQAK(ac)QLFR (SEQ ID NO: 321) (Vesicle-trafficking protein SEC22b [38], SEC22B, drug:DMSO): 0.46 log 2
light to heavy ratio (L/H ratio) of acetylated peptide TLLIK(ac)TVETR (SEQ ID NO: 269) (Vimentin [445], VIM, drug:DMSO): −0.54 log 2
light to heavy ratio (L/H ratio) of acetylated peptide, log 2 scale (WVFK(ac)EEGVLR (SEQ ID NO: 150), Dolichyl-diphosphooligosaccharide--protein glycosyltransferase 48 kDa subunit [301], DDOST): −0.53
light to heavy ratio (L/H ratio) of acetylated peptide KQELLEALTK(ac)HFQD (SEQ ID NO: 355) (X-ray repair cross-complementing protein 6 [605], XRCC6, drug:DMSO): 0.00 log 2
L/H ratio of acetylated peptide ALQEK(ac)VEIK (SEQ ID NO: 123) (XRCC5 [665], log 2 scale, drug vs DMSO): −0.46
light to heavy ratio (L/H ratio) of acetylated peptide, log 2 scale (YGPFVADFADK(ac)LNEQK (SEQ ID NO: 134), ATP synthase subunit b mitochondrial [126], ATP5F1): −0.45
light to heavy ratio (L/H ratio) of acetylated peptide, log 2 scale (YIAK(ac)QESVEER (SEQ ID NO: 140), Isoform 3 of Coiled-coil domain-containing protein 144A [754], CCDC144A): −0.42
light to heavy ratio (L/H ratio) of acetylated peptide, log 2 scale (YLENGK(ac)ETLQR (SEQ ID NO: 163), Putative HLA class I histocompatibility antigen alpha chain H [200], HLA-H): −0.46
light to heavy ratio (L/H ratio) of acetylated peptide, log 2 scale (YLLYGEK(ac)GTGK (SEQ ID NO: 147), 28S ribosomal protein S29 mitochondrial [130], DAP3): 0.46
light to heavy ratio (L/H ratio) of acetylated peptide YFLDK(ac)TLTSR (SEQ ID NO: 293) ([3-methyl-2-oxobutanoate dehydrogenase [lipoamide]] kinase mitochondrial [192], BCKDK, drug:DMSO): 0.50 log 2
light to heavy ratio (L/H ratio) of acetylated peptide, log 2 scale ([…](ac)PER (SEQ ID NO: 219), cDNA FLJ59739 highly similar to Protein transport protein Sec61 subunit alpha isoform 1 [27], SEC61A1): 0.49
light to heavy ratio (L/H ratio) of acetylated peptide SAYFAEK(ac)LYK (SEQ ID NO: 292) (annexin A4 [255], ANXA4, drug:DMSO): 0.62 log 2
light to heavy ratio (L/H ratio) of acetylated peptide ILMSK(ac)PVLSGGTGR (SEQ ID NO: 291) (cDNA FLJ55380 highly similar to Protein kinase C-binding protein 1 [440], ZMYND8, drug:DMSO): 0.65 log 2
light to heavy ratio (L/H ratio) of acetylated peptide YDGK(ac)WEVEEMK (SEQ ID NO: 274) (cDNA FLJ55574 highly similar to Calnexin [138], CANX, drug:DMSO): −0.49 log 2
light to heavy ratio (L/H ratio) of acetylated peptide LNK(ac)PFLFDTK (SEQ ID NO: 327) (cDNA FLJ55574 highly similar to Calnexin [172], CANX, drug:DMSO): 0.00 log 2
light to heavy ratio (L/H ratio) of acetylated peptide LLASK(ac)SLLNR (SEQ ID NO: 322) (cDNA FLJ56303 highly similar to Translocon-associated protein subunit beta [46], SSR2, drug:DMSO): −0.59 log 2
light to heavy ratio (L/H ratio) of acetylated peptide IINEVSK(ac)PLAHHIPVEK (SEQ ID NO: 341) (cDNA FLJ77177 highly similar to Homo sapiens arginine-rich mutated in early stage tumors (ARMET) mRNA [97], MANF, drug:DMSO): 0.00 log 2
light to heavy ratio (L/H ratio) of acetylated peptide TNVPVK(ac)LFAR (SEQ ID NO: 348) (cDNA FLJ77422 highly similar to Homo sapiens RNA binding protein autoantigenic (hnRNP-associated with lethal yellow homolog (mouse)) transcript variant 1 mRNA (Fragment) [165], RALY, drug:DMSO): 0.00 log 2
light to heavy ratio (L/H ratio) of acetylated peptide GSK(ac)FYGPAGPYGIFAGR (SEQ ID NO: 265) (membrane-associated progesterone receptor component 2 [159], PGRMC2, drug:DMSO): −0.45 log 2
light to heavy ratio (L/H ratio) of acetylated peptide SK(ac)SDPIMLLK (SEQ ID NO: 255) (pyruvate dehydrogenase E1 component subunit alpha somatic form mitochondrial isoform 2 precursor [351], PDHA1, drug:DMSO): 0.52 log 2
light to heavy ratio (L/H ratio) of acetylated peptide LTSLNVK(ac)YNNDK (SEQ ID NO: 590) (regulator of differentiation 1 isoform 2 [236], gene ROD1, inhibitor:DMSO): 0.00 log 2
light to heavy ratio (L/H ratio) of acetylated peptide GWLK(ac)SNVSDAVAQSTR (SEQ ID NO: 278) (triosephosphate isomerase isoform 2 [231], TPI1, TPI1P1, drug:DMSO): −0.41 log 2
